Test results reported in patent US20120114636A1, “LOW MOLECULAR WEIGHT CYCLIN E (LMW-E) AS A BIOMARKER FOR PERSONALIZATION OF CANCER THERAPIES” (The Board of Regents of the University of Texas System, priority 2009, published 2012).
Like-named read-outs stand apart in the source and are kept apart here.

Assays:
Format in all cases: cell-based, human
[1] = tested on: cyclin E-associated kinase activity in MCF-7/Ac1 cells; experiment: Cyclin E-associated kinase assay (histone H1); conditions: with 25 nM AD, 3 days
Protocol: Immunoprecipitation and Immunoblotting. Two hundred fifty μg of cell extracts were used per immunoprecipitation with polyclonal antibody to cyclin E or polyclonal antibody to CDK2, coupled to protein A beads. After being washed, the immunoprecipitates were subjected to electrophoresis in 13% gels, transferred to Immobolin P, blocked, and incubated with the indicated antibodies as already described.
MCF-7/Ac1 cells were treated with the indicated concentrations of letrozole and AD for 3 days. Cyclin E kinase assays were performed by immunoprecipitating equal amounts of cell lysate (250 μg) with monoclonal antibodies to cyclin E coupled to protein A beads, using histone H1 as substrate. […] The same cell lysates were subjected to western blot analysis (50 μg of protein) with the indicated antibodies. […] The same cell lysates were first immunoprecipitated with cyclin E followed by western blot for p21 and p27. […] The same cell lysates were first immunoprecipitated with CDK2 followed by western blot for p21 and p27. The levels of proteins were measured by densitometric scanning of the corresponding bands and normalized using actin values. The values indicated at the bottom were compared to the values obtained with untreated cells.

[2] = tested on: CDK2-associated kinase activity in MCF-7/Ac1 cells; experiment: CDK2-associated kinase assay (histone H1); conditions: with 25 nM AD, 3 days
Protocol: FIG. 28. Effect of increasing concentrations of letrozole in the presence of 25 nM AD on CDK2 kinase activity, activated CDK2 and Rb phosphorylation of MCF7/Ac1 human breast cancer cells. MCF-7/Ac1 cells were treated with the indicated concentrations of letrozole and AD for 3 days. CDK2 kinase assays were performed by immunoprecipitating equal amounts of cell lysate (250 μg) with monoclonal antibodies to CDK2 (D12, sc-6248) coupled to protein G beads, using histone H1 as substrate. […] The same cell lysates were subjected to western blot analysis (50 μg of protein) with the indicated antibodies.

[3] = tested on: MCF-7/Ac1 cells; experiment: Cell number of adenovirus-infected cells (LacZ, cyclin EL, T1, T2); conditions: for inhibition at 1 µM: Homo sapiens, MCF7, 1 μM letrozole, read-out: inhibition of AD-induced growth
From the text: LMW cyclin E, but not full-length cyclin E, overexpressing MCF-7/Ac1 cells partially override the letrozole inhibition of AD-induced S-phase entry and AD-induced CDK2 protein levels. Since overexpression of LMW cyclin E deregulates the G1 to S transition, the inventors interrogated the role of full-length and LMW cyclin E in letrozole response. To this end, the inventors examined the sensitivity of cyclin E overexpressing MCF-7/Ac1 cells to the growth inhibitory effect of letrozole using adenoviruses to overexpress full-length and LMW cyclin E (FIGS. 24A-24D). MCF-7/Ac1 cells were cultured in charcoal stripped serum media (CSSM) for 4 days before infecting them with 4000 m.o.i. of either LacZ, full-length cyclin E (cyclin EL) or LMW cyclin E (cyclin E-T1 and cyclin E-T2). Twenty-four hours later, cells were left either untreated, treated with 25 nM AD alone, or treated with 25 nM AD plus 1 μM letrozole for an additional 3 days (FIGS. 24A-24B). Following the treatment, cells were enumerated or subjected to flow cytometry analysis.
MCF-7/Ac1 cells were cultured in IMEM with 10% charcoal-stripped serum medium (CSSM) without phenol red and with 600 μg/ml of G418 for 4 days before plating. Triplicate wells of 6-well plates were then infected with the indicated adenoviruses (at 4000 m.o.i.) 24 hours before drug treatment. Cells were then left untreated (E2W, estrogen withdrawal) or treated with 25 nM AD (AD) or treated with 25 nM AD and 1 μM letrozole (AD+Let) and collected 3 days later for cell number. Cell growth is expressed as the percentage of the cells compared with the control cells (25 nM AD treated cells). […] MCF-7/Ac1 cells were treated as described in A, and collected for flow cytometry analysis. Histograms represent the S-phase fraction expressed as the percentage of the cells in S-phase compared with the control cells (25 nM AD treated cells). […] The same cell lysates as in A and B were subjected to western blot analysis (50 μg of protein) with cyclin E and CDK2 antibodies. The bar graph represents the densitometric values of the phosphorylated CDK2 bands. […] Left, MCF-7/Ac1 cells were cultured in IMEM with 10% charcoal-stripped serum medium (CSSM) without phenol red and with 600 μg/ml of G418 for 4 days before plating. Cells were then infected with the indicated adenoviruses (at 4000 m.o.i.) 24 hours before drug treatment. Cells were then treated with 25 nM AD and 1 μM letrozole and collected 3 days later for cell number. […] Columns, mean of two to three experiments, each in triplicates; bars, S.D.
To directly address this question, MCF-7/Ac1 cells were cultured in charcoal stripped serum media (CSSM) for 4 days before adding medium with no virus or with 4000 m.o.i. of either LacZ, or LMW cyclin E (cyclin E-T1) adenoviruses. 24 hours later, cells were left untreated, treated with 25 nM AD alone, or treated with 25 nM AD plus 1 μM letrozole for 3 days (FIG. 24D). The AD-induced growth of MCF-7/Ac1 cells was inhibited by letrozole by 51% in uninfected cells and by 58% in LacZ infected cells while the growth of cyclin E-T1 infected cells was inhibited by only 20% (FIG. 24D, left).

SMILES: N#Cc1ccc(C(c2ccc(C#N)cc2)n2cncn2)cc1 [letrozole]
- concentration that blocked the AD-induced increase in cyclin E-associated kinase activity [1]: ≤ 0.125 µM
- concentration that blocked the AD-induced increase in CDK2-associated kinase activity [2]: ≤ 0.125 µM
- inhibition of AD-induced growth ([3]; 1 μM letrozole, cyclin EL, T1, and T2 infected cells, FIG. 24A): no significant growth inhibition
- inhibition at 1 µM ([3]; LacZ infected cells, FIG. 24A): 56.1%
- inhibition at 1 µM ([3]; LacZ infected cells, FIG. 24D): 58%
- inhibition at 1 µM ([3]; cyclin E-T1 infected cells, FIG. 24D): 20%
- inhibition at 1 µM ([3]; uninfected cells, FIG. 24A): 40.8%
- inhibition at 1 µM ([3]; uninfected cells, FIG. 24D): 51%
